One may read the solubility as the concentration that dissolves in the medium under given conditions. A low value points to little dissolved substance.

The record followed here is patent publication US11426375B2, “Substituted bisphenyl butanoic ester derivatives as NEP inhibitors” (NOVARTIS AG, priority 2019, dated 2022).

Series [1] is classed as physicochemical. The conditions noted are these: for degradation in solution: 1 day. On the procedure: It was stable at pH of 4.7 and pH of 6.8 up to 70° C. for 3 days.
Details of series [2]: species or system Cynomolgus Monkeys. The following applies: cynomolgus monkey, in vivo, po, 10 mg/kg. How it is done: A cross-over study design consisting of two groups with two animals per group was conducted to examine the pharmacokinetic properties of compound I-1 of the present disclosure.
Compound I-1 and AHU377 were administered to each group as follows: compound I-1 on Day 0 followed by AHU377 on Day 2 (Group 1), AHU377 on Day 0 followed by compound I-1 on Day 2 (Group 2). Each animal received a single 10 mg/kg (5 ml/kg) oral gavage dose of the specified study drug on the specified day. The animals were 2.5 to 3.5 years of age and weighed between 3.1 and 4.3 kg at the beginning of the study. Both compounds were formulated in 0.5% methylcellulose (400 cp) and 0.1% Tween 80 (w,v) in water. Blood samples for pharmacokinetics analysis were collected at t=0, 0.25, 0.5, 1, 2, 4, 8, 24 and 48 hours post dose on Day 0 and Day 2. Plasma was prepared by collecting whole blood samples into tubes containing K2EDTA and NaF (final concentrations: ˜1 mg/mL (K2EDTA) and ˜2 mg/mL (NaF)). These tubes were kept in an ice bath prior to centrifugation at approximately 2,000 rcf for 10 minutes at approximately 5° C. To each resultant plasma sample (target volume 200 μL), 4 μL of 50% phosphoric acid (v/v) was added.
[^13C4]-LBQ657 was added as an internal standard to the pharmacokinetic (PK) samples and calibration standards prior to analysis by LC-MS/MS. The LC-MS system consisted of an API6500+ mass spectrometer coupled to an Agilent 1290 HPLC system equipped with a CTC Pal autosampler. The mass spectrometer was operated in the positive ion mode.

Details of series [3]: species or system Sprague Dawley rats. The conditions noted are these: rat, in vivo, po, 10 mg/kg; for LBQ657 concentration-time profile / conversion to LBQ657: male, Sprague-Dawley. On the procedure: A parallel study design consisting of four groups with three animals per group was conducted to examine the pharmacokinetic properties of the compounds of the present disclosure.
The drugs were administered to each group are as follows: compound I-1 (Group 1), compound I-2 (Group 2), compound I-3 (Group 3), and AHU377 (sacubitril) (Group 4). Each animal received a single 10 mg/kg (5 ml/kg) oral gavage dose of the specified study drug. The animal weights ranged from […] at the beginning of the study. Compound I-1, compound I-2, compound I-3, and AHU377 were formulated in 0.5% methylcellulose (400 cp) and 0.1% Tween 80 (w,v) in water was used as the vehicle. Water bath sonication was applied to facilitate dispersing for all four study drugs. Blood samples for pharmacokinetics analysis were collected at t=0.25, 0.5, 1, 2, 4, 8, and 24 hours (±5%) post dose administration. Plasma was prepared by collecting whole blood samples into tubes containing EDTA and NaF (final concentrations: ˜1 mg/mL (K2EDTA) and ˜2 mg/mL (NaF)). These tubes were kept in an ice bath prior to centrifugation at approximately 2,000 rcf for 10 minutes at approximately 5° C. To each resultant plasma sample, 50% phosphoric acid (v/v) was added to achieve a final concentration of 1% (v,v).
[^13C4]-LBQ657 was added as an internal standard to the pharmacokinetic (PK) samples and calibration standards prior to analysis by LC-MS/MS. The LC-MS system consisted of an API6500+ mass spectrometer coupled to an Agilent 1290 HPLC system equipped with a CTC Pal autosampler. The mass spectrometer was operated in the positive ion mode with a TESI ion source.

Series [4] is described as follows: Hygroscopicity, weight gain at 90% RH. In kind it is physicochemical. The conditions noted are these: after exposure to 90% RH. An excerpt:
The weight gain of compound I-1 after exposure to 90% RH (relatively humidity) was 0.34%, while that of AHU377 under the same conditions was 3.4%. […] On the other hand, AHU377 is a wax-like solid, which needs to be properly processed before further pharmaceutical processing such as weighing, dispensing and filling.

The nature of series [5]: Aqueous solubility by visual observation. In kind it is physicochemical. The following applies: water; based on visual observation. On the procedure:
The solubility value was more than about 500 mg/ml based on visual observation.

Read-outs that look alike come from different tables or passages of the source.

Take `CCOC(=O)[C@H](C)C[C@@H](Cc1ccc(-c2ccccc2)cc1)NC(=O)CCC(=O)O` [AHU377, 4-(((2S,4R)-1-([1,1′-biphenyl]-4-yl)-5-ethoxy-4-methyl-5-oxopentan-2-yl)amino)-4-oxobutanoic acid]: the figures for the degradation in solution in series [1] (pH 2) and in series [1] (pH 4.7) were 21.49% and 2.63%, respectively. Further, the “solution stability under acidic conditions” value in series [1] (pH 2) is given as “unstable”. The tolerability result is “well tolerated” in series [2] and “very well tolerated” in series [3]. In addition, the “weight gain (hygroscopicity)” value in series [4] was determined as 3.4%.

Regarding `CCOC(=O)[C@H](C)C[C@@H](Cc1ccc(-c2ccccc2)cc1)NC(=O)CCC(=O)N[C@@H](CCCCN)C(=O)O` [Compound I-2, (4-(((2S,4R)-1-([1,1′-biphenyl]-4-yl)-5-ethoxy-4-methyl-5-oxopentan-2-yl)amino)-4-oxobutanoyl)-L-lysine], in series [3], the LBQ657 concentration-time profile result is on record as “flattened relative to AHU377”, the “conversion to LBQ657” value is “nearly complete conversion to LBQ657” and the tolerability result was “very well tolerated”. The compound further returned a solubility in series [5] above 500 mg/mL.

Regarding `CCOC(=O)[C@H](C)C[C@@H](Cc1ccc(-c2ccccc2)cc1)NC(=O)CCC(=O)N[C@@H](CCCCN)C(=O)OC(C)(C)C` [Compound I-3, Tert-butyl (4-(((2S,4R)-1-([1,1′-biphenyl]-4-yl)-5-ethoxy-4-methyl-5-oxopentan-2-yl)amino)-4-oxobutanoyl)-L-lysinate], in series [3], the LBQ657 concentration-time profile entry is listed as “flattened relative to AHU377”, the “conversion to LBQ657” value is listed as “nearly complete conversion to LBQ657” and the tolerability result is “very well tolerated”.
